According to patent US12077503B2, “Substituted cyclic amides and their use as herbicides” (FMC CORPORATION, priority 2015, dated 2024):

Experiments:
Assay type in all cases: in vivo
Kochia (Kochia scoparia) [1] = experiment: Test A preemergence; conditions: Preemergence; for Plant response rating, Kochia: 125 g ai/ha, visual injury after approximately 10 d, 0 to 100 scale where 0 is no effect and 100 is complete control; for Kochia plant response rating (0 to 100 scale, 0 is no effect, 100 is complete control): 500 g ai/ha, visual injury approx. 10 d
Source text: (§1) Seeds of plant species selected from barnyardgrass (Echinochloa crus-galli), Kochia (Kochia scoparia), ragweed (common ragweed, Ambrosia elatior), ryegrass, Italian (Italian ryegrass, Lolium multiflorum), crabgrass, large (Digitaria sanguinalis), giant foxtail (Setaria faberii), green foxtail (Setaria viridis), morningglory (Ipomoea spp.), pigweed (Amaranthus retroflexus), velvetleaf (Abutilon theophrasti), wheat (Triticum aestivum), and corn (Zea mays) were planted into a blend of loam soil and sand and treated preemergence with a directed soil spray using test chemicals formulated in anon-phytotoxic solvent mixture which included a surfactant.
(§2) At the same time, plants selected from these crop and weed species and also blackgrass (Alopecurus myosuroides), and Galium (catchweed bedstraw, Galium aparine) were planted in pots containing the same blend of loam soil and sand and treated with postemergence applications of test chemicals formulated in the same manner. Plants ranged in height from 2 to 10 cm and were in the one- to two-leaf stage for the postemergence treatment. Treated plants and untreated controls were maintained in a greenhouse for approximately 10 d, after which time all treated plants were compared to untreated controls and visually evaluated for injury. Plant response ratings, summarized in Table A, are based on a 0 to 100 scale where 0 is no effect and 100 is complete control. A dash (-) response means no test result.

[2] = system: barnyardgrass (Echinochloa crus-galli); experiment: Test A preemergence; conditions: Preemergence; for Plant response rating, Barnyardgrass: 125 g ai/ha, visual injury after approximately 10 d, 0 to 100 scale where 0 is no effect and 100 is complete control; for Barnyardgrass plant response rating (0 to 100 scale, 0 is no effect, 100 is complete control): 500 g ai/ha, visual injury approx. 10 d
Source text: as §1, §2

[3] = system: giant foxtail (Setaria faberii); experiment: Test A preemergence; conditions: Preemergence; for Plant response rating, Foxtail, Giant: 125 g ai/ha, visual injury after approximately 10 d, 0 to 100 scale where 0 is no effect and 100 is complete control; for Foxtail, Giant plant response rating (0 to 100 scale, 0 is no effect, 100 is complete control): 500 g ai/ha, visual injury approx. 10 d
Source text: as §1, §2

[4] = system: pigweed (Amaranthus retroflexus); experiment: Test A preemergence; conditions: Preemergence; for Plant response rating, Pigweed: 125 g ai/ha, visual injury after approximately 10 d, 0 to 100 scale where 0 is no effect and 100 is complete control; for Pigweed plant response rating (0 to 100 scale, 0 is no effect, 100 is complete control): 500 g ai/ha, visual injury approx. 10 d
Source text: as §1, §2

[5] = system: ragweed (common ragweed, Ambrosia elatior); experiment: Test A preemergence; conditions: Preemergence; for Plant response rating, Ragweed: 125 g ai/ha, visual injury after approximately 10 d, 0 to 100 scale where 0 is no effect and 100 is complete control; for Ragweed plant response rating (0 to 100 scale, 0 is no effect, 100 is complete control): 500 g ai/ha, visual injury approx. 10 d
Source text: as §1, §2

[6] = system: ryegrass, Italian (Italian ryegrass, Lolium multiflorum); experiment: Test A preemergence; conditions: Preemergence; for Plant response rating, Ryegrass, Italian: 125 g ai/ha, visual injury after approximately 10 d, 0 to 100 scale where 0 is no effect and 100 is complete control; for Ryegrass, Italian plant response rating (0 to 100 scale, 0 is no effect, 100 is complete control): 500 g ai/ha, visual injury approx. 10 d
Source text: as §1, §2

[7] = system: Galium (catchweed bedstraw, Galium aparine); experiment: Test A postemergence
Source text: as §1, §2

Kochia (Kochia scoparia) [8] = experiment: Test A postemergence
Source text: as §1, §2

[9] = system: barnyardgrass (Echinochloa crus-galli); experiment: Test A postemergence
Source text: as §1, §2

[10] = system: blackgrass (Alopecurus myosuroides); experiment: Test A postemergence
Source text: as §1, §2

corn (Zea mays) = experiment: Test A postemergence
Source text: as §1, §2

[11] = system: giant foxtail (Setaria faberii); experiment: Test A postemergence
Source text: as §1, §2

[12] = system: pigweed (Amaranthus retroflexus); experiment: Test A postemergence
Source text: as §1, §2

[13] = system: ragweed (common ragweed, Ambrosia elatior); experiment: Test A postemergence
Source text: as §1, §2

[14] = system: ryegrass, Italian (Italian ryegrass, Lolium multiflorum); experiment: Test A postemergence
Source text: as §1, §2

[15] = system: wheat (Triticum aestivum); experiment: Test A postemergence
Source text: as §1, §2

[16] = 125 g ai/ha, postemergence, visual rating after approx. 10 d, 0 to 100 scale (0 no effect, 100 complete control)
[17] = Postemergence, 500 g ai/ha, 0 to 100 scale where 0 is no effect and 100 is complete control

Structure (SMILES) | Plant response rating, Kochia (Kochia (Kochia scoparia) [1]) | Kochia plant response rating (0 to 100 scale, 0 is no effect, 100 is complete control) (Kochia (Kochia scoparia) [1]) | Plant response rating, Barnyardgrass [2] | Barnyardgrass plant response rating (0 to 100 scale, 0 is no effect, 100 is complete control) [2] | Plant response rating, Foxtail, Giant [3] | Foxtail, Giant plant response rating (0 to 100 scale, 0 is no effect, 100 is complete control) [3] | Plant response rating, Pigweed [4] | Pigweed plant response rating (0 to 100 scale, 0 is no effect, 100 is complete control) [4] | Plant response rating, Ragweed [5] | Ragweed plant response rating (0 to 100 scale, 0 is no effect, 100 is complete control) [5] | Plant response rating, Ryegrass, Italian [6] | Ryegrass, Italian plant response rating (0 to 100 scale, 0 is no effect, 100 is complete control) [6] | Plant response rating, Galium [7, 16] | Plant response rating, Galium [7, 17] | Plant response rating, Kochia (Kochia (Kochia scoparia) [8]; [16]) | Plant response rating, Kochia (Kochia (Kochia scoparia) [8]; [17]) | Plant response rating, Barnyardgrass [9, 16] | Plant response rating, Barnyardgrass [9, 17] | Plant response rating, Blackgrass [10, 16] | Plant response rating, Blackgrass [10, 17] | other results
O=C1NCC(c2cccc(C(F)(F)F)c2)C1C(=O)Nc1ccccc1O (stereo not shown) [Compound 557] | 0 | 0 | 0 | 0 | 0 | 0 | 0 | 0 | 0 | 0 | 0 | 0 | 0 | 0 | 0 | 0 | 0 | 0 | 0 | 0 | Plant response rating, Corn (corn (Zea mays); [16]): 0; Plant response rating, Corn (corn (Zea mays); [17]): 0; Plant response rating, Foxtail, Giant [11, 16]: 0; Plant response rating, Foxtail, Giant [11, 17]: 0; Plant response rating, Pigweed [12, 16]: 0; Plant response rating, Pigweed [12, 17]: 0; Plant response rating, Ragweed [13, 16]: 0; Plant response rating, Ragweed [13, 17]: 0; Plant response rating, Ryegrass, Italian [14, 16]: 0; Plant response rating, Ryegrass, Italian [14, 17]: 0; Plant response rating, Wheat [15, 16]: 0; Plant response rating, Wheat [15, 17]: 0
CN1CC(c2ccc(Br)cc2)C(C(=O)Nc2ccccc2S(C)(=O)=O)C1=O (stereo not shown) [Compound 565] | 70 | 90 | 80 | 90 | 90 | 90 | 70 | 80 | 50 | 50 | 0 | 40 | 60 | 60 | 20 | 60 | 80 | 90 | 40 | 60 | Plant response rating, Corn (corn (Zea mays); [16]): 0; Plant response rating, Corn (corn (Zea mays); [17]): 20; Plant response rating, Foxtail, Giant [11, 16]: 80; Plant response rating, Foxtail, Giant [11, 17]: 90; Plant response rating, Pigweed [12, 16]: 20; Plant response rating, Pigweed [12, 17]: 60; Plant response rating, Ragweed [13, 16]: 0; Plant response rating, Ragweed [13, 17]: 50; Plant response rating, Ryegrass, Italian [14, 16]: 20; Plant response rating, Ryegrass, Italian [14, 17]: 30; Plant response rating, Wheat [15, 16]: 0; Plant response rating, Wheat [15, 17]: 40
CCc1cccc(C2CN(C)C(=O)C2C(=O)Nc2ccccc2F)c1 (stereo not shown) [Compound 567] | 60 | 80 | 100 | 100 | 100 | 100 | 20 | 40 | 50 | 60 | 60 | 80 | 40 | 50 | 20 | 50 | 90 | 100 | 60 | 80 | Plant response rating, Corn (corn (Zea mays); [16]): 70; Plant response rating, Corn (corn (Zea mays); [17]): 90; Plant response rating, Foxtail, Giant [11, 16]: 90; Plant response rating, Foxtail, Giant [11, 17]: 90; Plant response rating, Pigweed [12, 16]: 20; Plant response rating, Pigweed [12, 17]: 20; Plant response rating, Ragweed [13, 16]: 0; Plant response rating, Ragweed [13, 17]: 0; Plant response rating, Ryegrass, Italian [14, 16]: 70; Plant response rating, Ryegrass, Italian [14, 17]: 70; Plant response rating, Wheat [15, 16]: 30; Plant response rating, Wheat [15, 17]: 60
Cc1c(F)cccc1NC(=O)C1C(=O)N(C)CC1c1cccc(C(F)(F)F)c1 (stereo not shown) [Compound 573] | 70 | 80 | 90 | 100 | 90 | 100 | 40 | 80 | 0 | 50 | 80 | 90 | 60 | 70 | 50 | 60 | 90 | 100 | 70 | 70 | Plant response rating, Corn (corn (Zea mays); [16]): 80; Plant response rating, Corn (corn (Zea mays); [17]): 90; Plant response rating, Foxtail, Giant [11, 16]: 90; Plant response rating, Foxtail, Giant [11, 17]: 90; Plant response rating, Pigweed [12, 16]: 30; Plant response rating, Pigweed [12, 17]: 40; Plant response rating, Ragweed [13, 16]: 20; Plant response rating, Ragweed [13, 17]: 60; Plant response rating, Ryegrass, Italian [14, 16]: 70; Plant response rating, Ryegrass, Italian [14, 17]: 90; Plant response rating, Wheat [15, 16]: 70; Plant response rating, Wheat [15, 17]: 70
CN1CC(c2cccc(C(F)(F)F)c2)C(C(=O)Nc2cccc(Cl)c2F)C1=O (stereo not shown) [Compound 574] | 40 | 70 | 90 | 90 | 90 | 90 | 20 | 50 | 0 | 0 | 40 | 80 | 40 | 50 | 30 | 60 | 90 | 90 | 60 | 70 | Plant response rating, Corn (corn (Zea mays); [16]): 60; Plant response rating, Corn (corn (Zea mays); [17]): 80; Plant response rating, Foxtail, Giant [11, 16]: 80; Plant response rating, Foxtail, Giant [11, 17]: 80; Plant response rating, Pigweed [12, 16]: 20; Plant response rating, Pigweed [12, 17]: 40; Plant response rating, Ragweed [13, 16]: 0; Plant response rating, Ragweed [13, 17]: 0; Plant response rating, Ryegrass, Italian [14, 16]: 50; Plant response rating, Ryegrass, Italian [14, 17]: 70; Plant response rating, Wheat [15, 16]: 40; Plant response rating, Wheat [15, 17]: 70
